# Experimental data: patent US8591878B2, “Therapeutic compounds” (Merck Sharp & Dohme Corp., priority 2008, dated 2013)
# Where two headings read alike, the source gives them in different places.
# Test system: subgenomic HCV replicon in Huh-7 cells
# Assay: Cell-Based HCV Replication Assay (replicon, NS3 Cell-ELISA)
# Set-up: species or system hepatitis C virus (HCV)
# Excerpt: Another suitable assay is the cellular Replicon or rheplisa assay described as follows:
# Cell-Based HCV Replication Assay
# Cell clones that stably maintain subgenomic HCV replicon were obtained by transfecting Huh-7 cells with an RNA replicon identical to I377neo/NS3-3′/wt described by V. Lohmann et al., 285 SCIENCE 110 (Jul. 2, 1999) (EMBL-GENBANK No. AJ242652), followed by selection with neomycin sulfate (G418). Viral replication was monitored by measuring the expression of the NS3 protein by an ELISA assay performed directly on cells grown in 96-well microtiter plates (Cell-ELISA) using the anti-NS3 monoclonal antibody 10E5/24 (as described in International Patent Application Publication WO 02/59321). Cells were seeded into 96 well plates at a density of 10^4 cells per well in a final volume of 0.1 ml of DMEM/10% FCS. Two hours after plating, 50 μl of DMEM/10% FCS containing a 3× concentration of inhibitor were added, cells were incubated for 96 hours and then fixed for 10 minutes with ice-cold isopropanol. Each condition was tested in duplicate and average absorbance values were used for calculations. The cells were washed twice with PBS, blocked with 5% non-fat dry milk in PBS+0.1% TRITON X-100+0.02% SDS (PBSTS) and then incubated o/n at 4° C. with the 10E5/24 mab diluted in Milk/PBSTS. After washing 5 times with PBSTS, the cells were incubated for 3 hours at room temperature with Fe-specific anti-mouse IgG conjugated to alkaline phosphatase (Sigma), diluted in Milk/PBSTS. After washing again as above, the reaction was developed with p-nitrophenyl phosphate disodium substrate (Sigma) and the absorbance at 405/620 nm read at intervals. For calculations, we used data sets where samples incubated without inhibitors had absorbance values comprised between 1 and 1.5. The inhibitor concentration that reduced by 50% the expression of NS3 (IC50) was calculated by fitting the data to the Hill equation, Fraction inhibition=1−(Ai−b)/(A0−b)=[I]^n/([I]+IC50) where: • Ai=absorbance value of HBI10 cells supplemented with the indicated inhibitor concentration. • A0=absorbance value of HBI10 cells incubated without inhibitor. • b=absorbance value of Huh-7 cells plated at the same density in the same microtiter plates and incubated without inhibitor. • n=Hill coefficient.
# [1] = Hepatitis C virus, Huh-7 cells with subgenomic HCV replicon, NS3 expression by Cell-ELISA, 96 hours incubation, read-out: Cell based HCV Replication Assay-IC50
# [2] = Huh-7 cells with subgenomic HCV replicon, NS3 expression by Cell-ELISA, 96 hours incubation, read-out: Cell based HCV Replication Assay-IC50
Compound,IC50 [1] [nM],also measured
"C=C[C@@H]1C[C@]1(NC(=O)[C@@H]1C[C@@H]2CN1C(=O)[C@H](C1CCCCC1)NC(=O)N1CCC[C@H](C1)OCCCc1cc3c(nccc3cc1OC)O2)C(=O)NS(=O)(=O)C1CC1 [Example 11, (3R,5S,8S,15R)-8-cyclohexyl-N-((1R,2S)-1-{[(cyclopropylsulfonyl)amino]carbonyl}-2-vinylcyclopropyl)-21-methoxy-7,10-dioxo-2,16-dioxa-6,9,11,26-tetraazapentacyclo [18.6.2.1^3,6.1^11,15.0^23,27] triaconta-1(26),20,22,24,27-pentaene-5-carboxamide]",–,"IC50 (Hepatitis C virus, Huh-7, 96 h, read-out: Cell based HCV Replication Assay-IC50): 6 nM"
"C=CC1C[C@]1(NC(=O)[C@@H]1C[C@@H]2CN1C(=O)[C@H](C1CCCCC1)NC(=O)N1CCC(CC1)OCCCCCc1cc3c(cc(OCC)nc3cc1OC)O2)C(=O)NS(=O)(=O)C1CC1 (stereo in doubt) [Example 34, (3R,5S,8S)-8-cyclohexyl-N-((1R,2R)-1-{[(cyclopropylsulfonyl)amino]carbonyl}-2-vinylcyclopropyl)-26-ethoxy-22-methoxy-7,10-dioxo-2,15-dioxa-6,9,11,25-tetraazapentacyclo [19.6.2.2^11,14.1^3,6.0^24,28] dotriaconta-1(27),21,23,25,28-pentaene-5-carboxamide]",7,–
"CC[C@@H]1C[C@]1(NC(=O)[C@@H]1C[C@@H]2CN1C(=O)[C@H](C1CCCC1)NC(=O)N1CC[C@@H](C1)OCCCCCc1cc3ccc(OC)cc3nc1O2)C(=O)NS(=O)(=O)C1CC1 [Example 20, (1R,19S,25S,28S)-25-cyclopentyl-N-((1R,2R)-1-{[(cyclopropylsulfonyl)amino]carbonyl}-2-ethylcyclopropyl)-7-methoxy-23,26-dioxo-2,18-dioxa-4,22,24,27-tetraazapentacyclo [25.2.1.1^19,22.0^3,12.0^5,10] hentriaconta-3(12),4,5,7,9,10-hexaene-28-carboxamide]",–,IC50 [2]: 15 nM
"C=C[C@@H]1C[C@]1(NC(=O)[C@@H]1C[C@@H]2CN1C(=O)[C@H](C1CCCCC1)NC(=O)N1CCC[C@H](C1)OCCCc1cc3c(cc(-c4ccccc4)nc3cc1OC)O2)C(=O)NS(=O)(=O)C1CC1 [Example 8, (3R,5S,8S,15R)-8-cyclohexyl-N-((1R,2S)-1-{[(cyclopropylsulfonyl)amino]carbonyl}-2-vinylcyclopropyl)-21-methoxy-7,10-dioxo-25-phenyl-2,16-dioxa-6,9,11,24-tetraazapentacyclo [18.6.2.1^3,6.1^11,15.0^23,27] triaconta-1(27),20,22,23,25,27-hexaene-5-carboxamide]",5,–
"C=C[C@@H]1C[C@]1(NC(=O)[C@@H]1C[C@@H]2CN1C(=O)[C@H](C1CCCCC1)NC(=O)N1CCC[C@@H](C1)OCCCc1cc3c(nccc3cc1OC)O2)C(=O)NS(=O)(=O)C1CC1 [Example 10, (3R,5S,8S,15S)-8-cyclohexyl-N-((1R,2S)-1-{[(cyclopropylsulfonyl)amino]carbonyl}-2-vinylcyclopropyl)-21-methoxy-7,10-dioxo-2,16-dioxa-6,9,11,26-tetraazapentacyclo [18.6.2.1^3,6.1^11,15.0^23,27] triaconta-1(26),20,22,24,27-pentaene-5-carboxamide]",7,–
"C=C[C@@H]1C[C@]1(NC(=O)[C@@H]1CC2CN1C(=O)[C@H](C1CCCC1)NC(=O)N1CCCC(C1)OC/C=C/Cn1cc(C)c3c4ccccc4nc(c31)O2)C(=O)NS(=O)(=O)C1CC1 (stereo in doubt) [Example 15, (3S,5S,8S,18E)-8-cyclopentyl-N-((1R,2S)-1-{[(cyclopropylsulfonyl)amino]carbonyl}-2-vinylcyclopropyl)-23-methyl-7,10-dioxo-2,16-dioxa-6,9,11,21,31-pentaazahexacyclo [19.10.1.1^3,6.1^11,15.0^24,32.0^25,30] tetratriaconta-1(31),18,22,24(32),25,27,29-heptaene-5-carboxamide]",5,–
"(1R,13E,19S,25S,28S)-25- cyclohexyl-N-((1R,2S)-1- {[(cyclopropylsulfonyl)amino] carbonyl}-2- vinylcyclopropyl)-7-methoxy- 23,26-dioxo-2,18-dioxa- 4,22,24,27-tetraazapentacyclo [25.2.1.1^19,22.0^3,12.0^5,10] hentriaconta- 3(12),4,5,7,9,10,13-heptaene- 28-carboxamide [Example 42]",–,IC50 [2]: 3 nM
"CCOc1cc2c3cc(c(OC)cc3n1)/C=C/CO[C@H]1CCN(C1)C(=O)N[C@@H](C1CCCC1)C(=O)N1C[C@@H](C[C@H]1C(=O)N[C@]1(C(=O)NS(=O)(=O)C3CC3)C[C@H]1CC)O2 [Example 23, (3R,5S,8S,14S,17E)-8-cyclopentyl-N-((1R,2R)-1-{[(cyclopropylsulfonyl)amino]carbonyl}-2-ethylcyclopropyl)-24-ethoxy-20-methoxy-7,10-dioxo-2,15-dioxa-6,9,11,23-tetraazapentacyclo [17.6.2.1^3,6.1^11,14.0^22,26] nonacosa-1(25),17,19,21,23,26-hexaene-5-carboxamide]",7,–
"C=C[C@@H]1C[C@]1(NC(=O)[C@@H]1C[C@@H]2CN1C(=O)[C@H](C1CCCC1)NC(=O)N1CC[C@@H](C1)OCCCc1ccc3nc(OCC)nc(c3c1)O2)C(=O)NS(=O)(=O)C1CC1 [Example 41, (3R,5S,8S,14S)-8-cyclopentyl-N-((1R,2S)-1-{[(cyclopropylsulfonyl)amino]carbonyl}-2-vinylcyclopropyl)-24-ethoxy-7,10-dioxo-2,15-dioxa-6,9,11,23,25-pentaazapentacyclo [17.6.2.1^3,6.1^11,14.0^22,26] nonacosa-1(25),19,21,23,26-pentaene-5-carboxamide]",94,–
"C=C[C@@H]1C[C@]1(NC(=O)[C@@H]1C[C@@H]2CN1C(=O)[C@H](C1CCCCC1)NC(=O)N1CCC[C@@H](C1)OCCCc1cc3c(cc(-c4ccccc4)nc3cc1OC)O2)C(=O)NS(=O)(=O)C1CC1 [Example 9, (3R,5S,8S,15S)-8-cyclohexyl-N-((1R,2S)-1-{[(cyclopropylsulfonyl)amino]carbonyl}-2-vinylcyclopropyl)-21-methoxy-7,10-dioxo-25-phenyl-2,16-dioxa-6,9,11,24-tetraazapentacyclo [18.6.2.1^3,6.1^11,15.0^23,27] triaconta-1(27),20,22,23,25,27-hexaene-5-carboxamide]",7,–
"C=C[C@@H]1C[C@]1(NC(=O)[C@@H]1C[C@@H]2CN1C(=O)[C@H](C1CCCCC1)NC(=O)N1CCC[C@H](CCCCc3cc4c(cc(-c5ccccc5)nc4cc3OC)O2)C1)C(=O)NS(=O)(=O)C1CC1 [Example 6, (3R,5S,8S,15S)-8-cyclohexyl-N-((1R,2S)-1-{[(cyclopropylsulfonyl)amino]carbonyl}-2-vinylcyclopropyl)-21-methoxy-7,10-dioxo-25-phenyl-2-oxa-6,9,11,24-tetraazapentacyclo [18.6.2.1^3,6.1^11,15.0^23,27] triaconta-1(27),20,22,23,25,27-hexaene-5-carboxamide]",24,–
"C=C[C@@H]1C[C@]1(NC(=O)C1C[C@@H]2CN1C(=O)[C@H](C1CCCC1)NC(=O)N1CC[C@@H](C1)OCCC/C=C/c1cc3ccc(OC)cc3nc1O2)C(=O)NS(=O)(=O)C1CC1 (stereo partly drawn) [Example 17, (1R,13E,19S,25S,28S)-25-cyclopentyl-N-((1R,2S)-1-{[(cyclopropylsulfonyl)amino]carbonyl}-2-vinylcyclopropyl)-7-methoxy-23,26-dioxo-2,18-dioxa-4,22,24,27-tetraazapentacyclo [25.2.1.1^19,22.0^3,12.0^5,10] hentriaconta-3(12),4,5,7,9,10,13-heptaene-28-carboxamide]",4,–
"C=C[C@@H]1C[C@]1(NC(=O)[C@@H]1C[C@@H]2CN1C(=O)[C@H](C1CCCCC1)NC(=O)N1CCC[C@@H](C1)OCCCc1cc3c(cc(OCC)nc3cc1OC)O2)C(=O)NS(=O)(=O)C1CC1 [Example 1, (3R,5S,8S,15S)-8-Cyclohexyl-N-((1R,2S)-1-{[(cyclopropylsulfonyl)amino]carbonyl}-2-vinylcyclopropyl)-25-ethoxy-21-methoxy-7,10-dioxo-2,16-dioxa-6,9,11,24-tetraazapentacyclo[18.6.2.1^3,6.1^11,15.0^23,27]triaconta-1(27),20,22,23,25,27-hexaene-5-carboxamide]",–,"IC50 (Hepatitis C virus, Huh-7 replicon cells, NS3 expression by Cell-ELISA, 96 hours, read-out: Cell-based HCV Replication Assay: IC50): 4 nM"
